Source: patent US20130295145A1, “TOPICAL PHARMACEUTICAL COMPOSITIONS COMPRISING ETODOLAC” (CADILA HEALTHCARE LIMITED, priority 2010, published 2013)

Assay: Stability study on nanogel composition of Example 1 (storage at 40° C. and 75% relative humidity)
Format: physicochemical
Conditions: for % Drug in the formulation, 1 Month / % Drug in the formulation, 2 Month / % Drug in the formulation, 3 Month: 40° C. and 75% relative humidity; for % Drug in the formulation, 2 Month: 2 months; for % Drug in the formulation, 3 Month: 3 months
Description: Stability Study on Nanogel Composition of Example 1

[1] = nanogel Formulation 1 of Example 1
[2] = nanogel Formulation 2 of Example 1

COC(=O)c1ccccc1O [Methyl salicylate]
% Drug in the formulation, 1 Month [1]: 100.9%
% Drug in the formulation, 2 Month [1]: 95.2%
% Drug in the formulation, 3 Month [1]: 93.2%
% Drug in the formulation, Initial [1]: 97.3%
% Drug in the formulation, 1 Month [2]: 101.2%
% Drug in the formulation, 2 Month [2]: 97.7%
% Drug in the formulation, 3 Month [2]: 97.2%
% Drug in the formulation, Initial [2]: 100.2%

CCc1cccc2c3c([nH]c12)C(CC)(CC(=O)O)OCC3 (racemic) [Etodolac, (RS)-2-(1,8-Diethyl-4,9-dihydro-3H-pyrano[3,4-b]indol-1-yl)acetic acid]
% Drug in the formulation, 1 Month [1]: 99.5%
% Drug in the formulation, 2 Month [1]: 97.7%
% Drug in the formulation, 3 Month [1]: 95.9%
% Drug in the formulation, Initial [1]: 101.6%
% Drug in the formulation, 1 Month [2]: 97.6%
% Drug in the formulation, 2 Month [2]: 103.0%
% Drug in the formulation, 3 Month [2]: 102.3%
% Drug in the formulation, Initial [2]: 100.4%
